Consider five molecules from patent publication US20130045491A1, “METHODS FOR ACTIVATING T CELLS” (priority 2011, published 2013).

For one series, the system named is CCR6^+ TM cells. As to the kind of experiment: Effect of PI-3K/Akt inhibitors on cytokine production of IL-7-cultured CCR6+ memory T cells. In kind it is cell-based, human. The note with it: one week in IL-7, then inhibitor for 48 hours, restimulation. As for the experimental part: (§1) Peripheral Blood Mononuclear Cells (PBMCs) from healthy individuals (New York Blood Center, New York, N.Y.) were prepared using Ficoll-paque plus (GE Amersham, Uppsala, Sweden). Whole blood samples from rheumatoid arthritis patients were purchased from Bioreclamation (New York, N.Y.) and were processed similar to healthy donor blood. All healthy donor and patient samples were consented prior to purchase, were none-identifiable and approved by institutional human subjects board. CD4^+ T cells were isolated using Dynal CD4 Positive Isolation Kit (Invitrogen, Carlsbad, Calif.) directly from purified PBMCs and were >99% pure. CD4^+ T cells were sorted by FACS ARIA cell sorter (BD, San Jose, Calif.) into CD45RO^+ CD25^− memory T (TM) cells. TM cells were activated either by anti-CD3 and anti-CD28 (aCD3/aCD28) coated beads (1:4 beads:cells ratio) for 18-24 hours, or by Phorbol 12-myristate 13-acetate (PMA) and ionomycin for 4 hours and further FACS sorted based on CCR6 and IL-17 expression into CCR6^−IL-17^−, CCR6^+IL-17^+, or CCR6^+ IL-17^− subsets (as determined by secretion assay labeling, see below). Sorted cells (>99% pure) were cultured in serum-free Xvivo-15 medium (Lonza, Wakersville, Md.) at 37° C. and 5% CO2 for 6-7 days prior to restimulation with PMA and ionomycin (see below). […] To determine the fold expansion, CCR6^+IL-17^+ or CCR6^+IL-17^− subsets were labeled with CFSE (Molecular Probes, Eugene, Oreg.) or eFluor 670 (eBioscience, San Diego, Calif.), respectively, as previously described (Oswald-Richter, et al., PLoS Biol 2004; 2: E198). […] In the experiments using PI-3K signaling inhibitors, cells were treated with PI-3K specific inhibitor, LY294002 (EMD, Gibbstown, N.J.), or Akt specific inhibitor, AKTi-1/2 (EMD), for 2 days before PMA and Ionomycin restimulation.

The subject of the next series is Akt. The series can be described thus: Cytokine-dependent Akt phosphorylation in memory T cells treated with inhibitors. In kind it is cell-based, human. The note with it: 1-10 μg/mL inhibitor, 48 hours. As to the method: (§2) Peripheral Blood Mononuclear Cells (PBMCs) from healthy individuals (New York Blood Center, New York, N.Y.) were prepared using Ficoll-paque plus (GE Amersham, Uppsala, Sweden). Whole blood samples from rheumatoid arthritis patients were purchased from Bioreclamation (New York, N.Y.) and were processed similar to healthy donor blood. All healthy donor and patient samples were consented prior to purchase, were none-identifiable and approved by institutional human subjects board. CD4^+ T cells were isolated using Dynal CD4 Positive Isolation Kit (Invitrogen, Carlsbad, Calif.) directly from purified PBMCs and were >99% pure. CD4^+ T cells were sorted by FACS ARIA cell sorter (BD, San Jose, Calif.) into CD45RO^+ CD25^− memory T (TM) cells. TM cells were activated either by anti-CD3 and anti-CD28 (aCD3/aCD28) coated beads (1:4 beads:cells ratio) for 18-24 hours, or by Phorbol 12-myristate 13-acetate (PMA) and ionomycin for 4 hours and further FACS sorted based on CCR6 and IL-17 expression into CCR6^−IL-17^−, CCR6^+IL-17^+, or CCR6^+ IL-17^− subsets (as determined by secretion assay labeling, see below). Sorted cells (>99% pure) were cultured in serum-free Xvivo-15 medium (Lonza, Wakersville, Md.) at 37° C. and 5% CO2 for 6-7 days prior to restimulation with PMA and ionomycin (see below). […]

The test system of a further series is TM cells. As to the kind of experiment: Cell viability of memory T cells treated with inhibitors. The conditions noted are these: 1-10 μg/mL inhibitor, 48 hours.
The test system of series [1] is resting CCR6^+CD45RO^+CD25^− TM cells. As to the kind of experiment: Cytokine expression in resting CCR6+ memory T cells stimulated with cytokines without TCR stimulation. In kind it is cell-based, human. As to the method: as §1, with “[…] […]” for “TM cells were activated either by anti-CD3 and anti-CD28 (aCD3/aCD28) coated beads (1:4 beads:cells ratio) for 18-24 hours, or by Phorbol 12-myristate 13-acetate (PMA) and ionomycin for 4 hours and further FACS sorted based on CCR6 and IL-17 expression into CCR6^−IL-17^−, CCR6^+IL-17^+, or CCR6^+ IL-17^− subsets (as determined by secretion assay labeling, see below). Sorted cells (>99% pure) were cultured in serum-free Xvivo-15 medium (Lonza, Wakersville, Md.) at 37° C. and 5% CO2 for 6-7 days prior to restimulation with PMA and ionomycin (see below).”

The test system of a further series is CCR6^+IL-17^− TM cells. The series can be described thus: IL-17 induction in activated, FACS-sorted CCR6+IL-17- memory T cells cultured with cytokines, intracellular staining after PMA/ionomycin. In kind it is cell-based, human. The conditions noted are these: for IL-17 expression in CCR6+IL-17- T cells: cultured 6 days in the cytokine, compared with IL-2, FIG. 1e. As to the method: as §1
Manufacturer's protocols (Miltenyi Biotec) for labeling human and mouse IL-17 secreting cells were followed. Briefly, activated T-cells were washed in cold buffer (PBS+0.5% BSA+2 mM EDTA) and labeled with IL-17 catch reagent for 5 minutes on ice. Pre-warmed medium was then added and the cells were incubated at 37° C. on a shaker for 45 minutes. For human IL-17 capture experiments, cells were washed once more with cold buffer and PE-conjugated IL-17 detection antibodies were added and incubated on ice for 10 minutes. For mouse IL-17 capture experiments, all steps were identical, except that the IL-17 detection antibody used was biotinylated, and a secondary staining step using APC-conjugated streptavidin was used. Cells were then washed and stained with additional cell surface antibodies at room temperature for 20 minutes. These cells were then washed once more with cold buffer, resuspended in serum-free RPMI 1640 medium, filtered and FACS sorted. […]

Series [2] deals with CCR6^− TM cells. As to the kind of experiment: IL-17 induction in sorted CCR6-IL-17- memory T cells cultured with cytokines. The format is cell-based, human. The note with it: cultured 6 days in the cytokine, restimulation. As to the method:
as §2

The subject of series [3] is CCR6^− TM cells. The series can be described thus: Cytokine expression in resting CCR6- memory T cells stimulated with IL-7. The format is cell-based, human. As for the experimental part:
as §2

The next series relates to RORC. As to the kind of experiment: RORC / Foxp3 mRNA expression by quantitative PCR. In kind it is cell-based, human. The conditions noted are these: unpublished data. The source says: Purified T cells (1×10^5) were snap frozen in liquid nitrogen for total RNA isolation. Total RNA was isolated using RNeasy isolation kit (Qiagen, Valencia, Calif.) according to the manufacturer's protocol. The extracted RNA was then reverse transcribed into cDNA and quantified using Taqman Cell to CT kit (Applied Biosystems, Carlsbad, Calif.). Taqman primers and probe sets were purchased from Applied Biosystems: Human KLF2 (Hs00360439_g1), RORC (Hs01076120_g1), Il-17a (Hs00174383_m1), b-Actin (Hs03023880_g1), Foxp3 (Hs00203958_m1). Data was acquired and analyzed on ABI 7500 sequence detection system. Quantitative real-time PCR data was analyzed by normalizing Ct values of genes of interest to the Ct values of the housekeeping gene b-Actin.

As for `O=c1[nH]c2ccccc2n1C1CCN(Cc2ccc(-c3nc4cc5nc[nH]c5cc4nc3-c3ccccc3)cc2)CC1` [AKTi-1/2], in the series with CCR6^+ TM cells, the “expression of IFNγ” value was “not affected”, the “expression of IL-4” value was “less reduced” and the “γc-mediated IL-17/IL-22 induction” value was “repressed γc-mediated IL-17/IL-22 induction in a dose-dependent manner”. Further, the “cytokine-dependent phosphorylation of Akt” value with Akt was “downregulated cytokine-dependent phosphorylation of Akt”. Moreover, the cell viability entry with TM cells is “without adversely affecting cell viability”.

As to IL-4: another γc-cytokine, the “IL-17/IL-22 (Th17 cytokine) expression in resting CCR6+ TM cells” value in series [1] (no TCR stimulation, unpublished data) is reported as “did not promote Th17 cytokine production”. Besides, in series [1] (resting TM cells, unpublished data), the TM cell survival result was “did not promote Th17 cytokine production in resting CCR6^+ TM cells or confer TM cell survival”.

For “IL-7: γc-cytokine from R&D Systems, used at 20 ng/mL”, the “IL-17 expression in CCR6+IL-17- T cells” value with CCR6^+IL-17^− TM cells is recorded as “induced similar levels of IL-17 expression”. For the same molecule, the “IL-17 expression in CCR6- TM cells” value with CCR6^− TM cells [2] is listed as “neither IL-7 nor IL-15 induced IL-17 expression”. Besides, in series [1] (10 days, no TCR stimulation), the “enhancement of IL-17 expression compared to the same cells ex vivo (day 0)” value is on record as “more than 3 fold” and the “enhancement of IL-22 expression compared to the same cells ex vivo (day 0)” value was “more than 3 fold”. For the same molecule, the “increase of cells co-expressing IL-22 or IFNγ with IL-17” value in series [1] (IL-7 stimulation) was “more than 5 fold”. The IFNγ production entry in series [1] (resting CCR6+ or CCR6- TM cells cultured with IL-7) is on record as “almost no impact”. In addition, in the series on CCR6^− TM cells [3], the “IL-17 or IL-22 expression in CCR6- TM cells” value is reported as “failed to express IL-17 or IL-22”. Further, in the series with RORC, the “RORC mRNA expression levels” value is listed as “neither IL-7 stimulation, nor treatment with PI-3K or Akt inhibitors, nor overexpression of FOXO1 or KLF2 affected RORC mRNA expression levels”.

For the molecule “IL-15: γc-cytokine from R&D Systems, used at 20 ng/mL”, the “IL-17 expression in CCR6+IL-17- T cells” value with CCR6^+IL-17^− TM cells is on record as “induced similar levels of IL-17 expression”. Moreover, the “IL-17 expression in CCR6- TM cells” value in the series with CCR6^− TM cells [2] is given as “neither IL-7 nor IL-15 induced IL-17 expression”.

As to “IL-23: cytokine from R&D Systems, used at 20 ng/mL; known to enhance Th17 cell differentiation”, the “induction of IL-17/IL-22 expression from CCR6+ human TM cells” value in the series on CCR6^+IL-17^− TM cells (IL-23 in place of γc cytokines, unpublished data) is given as “not able to compensate for γc cytokines”. Besides, in the series on CCR6^+IL-17^− TM cells, the “IL-17 expression in CCR6+IL-17- T cells” value is “did not influence IL-17 expression”. In addition, in series [1] (resting CCR6+ TM cells), the “further induction of IL-17 or IL-22 expression in combination with IL-7” value is listed as “did not significantly synergize with IL-7”.
